Among the test systems are MDA-MB-435; UACC-257; U-251; DU-145; SN12C; M14; SNB-19; HCT-116; CAKI-1; K562; NCI-H23; 786-0; CCRF-CEM; MCF7; EKVX; SR; Hs-578T; HL-60; OVCAR-5; HOP-62.
Holding throughout (assay): inhibition of tumour cell growth, NCI panel, 48 h

The structures appear in SMILES notation.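 Each compound was tested at five concentrations against cells in 96-well plates for 48 hours. GI50 is the concentration that inhibits growth by half.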 Active and inactive are the calls of the source. No stated cut-off is given here; in the data, active = GI50 up to about 1.1 µM and inactive = higher. Some results are limits rather than exact numbers.

Consider `Nc1nc2c(ncn2C2CCC(CO)O2)c(=O)n1C(=O)c1ccccc1` (stereo unspecified), for which the GI50 with MDA-MB-435, with UACC-257, in the experiment on U-251, in the experiment with DU-145, in the experiment with SN12C and in the experiment on M14 was > 100 µM (inactive) throughout. Further, the GI50 in the experiment on SNB-19, with HCT-116, with CAKI-1, in the experiment on K562, in the experiment with NCI-H23 and in the experiment with 786-0 was > 100 µM (inactive) each time. Moreover, the GI50 with CCRF-CEM was > 100 µM (inactive); with MCF7, > 100 µM (inactive); in the experiment on EKVX it was > 100 µM (inactive); in the experiment on SR, 67.3 µM (inactive); in the experiment with Hs-578T it was > 100 µM (inactive); with HL-60 it was > 100 µM (inactive). Moreover, the GI50 with OVCAR-5 and in the experiment on HOP-62 was > 100 µM (inactive) in each case.

For the compound `COC(C(=O)C(O)C(C)O)C1CC2C=C3C=C(OC4CC(OC5CC(O)C(OC)C(C)O5)C(OC(C)=O)C(C)O4)C(C)C(O)=C3C(O)=C2C(=O)C1OC1CC(OC2CC(OC3CC(C)(O)C(OC(=O)C(C)C)C(C)O3)C(O)C(C)O2)C(O)C(C)O1` (stereo unspecified), the GI50 in the experiment on MDA-MB-435, in the experiment with UACC-257, in the experiment with U-251, with DU-145, in the experiment with SN12C and in the experiment with M14 was < 0.01 µM (active) throughout. Moreover, the GI50 in the experiment with SNB-19, in the experiment on HCT-116, in the experiment with CAKI-1, in the experiment on K562, in the experiment on NCI-H23 and in the experiment on 786-0 was < 0.01 µM (active) in each case. Moreover, the GI50 in the experiment on CCRF-CEM, in the experiment on MCF7, in the experiment with EKVX, in the experiment with SR, in the experiment with Hs-578T and in the experiment on HL-60 was < 0.01 µM (active) each time. Also, the GI50 with OVCAR-5 and in the experiment with HOP-62 was < 0.01 µM (active) in each case.

As for `C=C1C(=O)OC2/C=C(/CO)C3(O)CC(O)C(C)(CC(OC(=O)/C(C)=C/C)C12)O3` (stereo unspecified), the GI50 in the experiment on MDA-MB-435 is 9.42 µM (inactive); in the experiment on UACC-257 it was 15.4 µM (inactive); with U-251, 18.5 µM (inactive); with DU-145 it was 18.5 µM (inactive); with SN12C, 15.7 µM (inactive); with M14 it was 17.7 µM (inactive). Further, the GI50 was 36.5 µM (inactive) in the experiment with SNB-19; 6.73 µM (inactive) with HCT-116; 4.33 µM (inactive) in the experiment on CAKI-1; 4.47 µM (inactive) in the experiment on K562; 13.6 µM (inactive) in the experiment with NCI-H23; 10.1 µM (inactive) in the experiment on 786-0. Also, the GI50 in the experiment with CCRF-CEM is 2.1 µM (inactive); in the experiment on MCF7, 6.73 µM (inactive); with EKVX, 18.8 µM (inactive); in the experiment with SR, 4.57 µM (inactive); with Hs-578T it was 53.5 µM (inactive); with HL-60, 6.21 µM (inactive). Moreover, the GI50 was 21 µM (inactive) in the experiment with OVCAR-5 and 49.3 µM (inactive) with HOP-62.

`CC1(C)[C@@H]2CC[C@@]1(C)[C@@H]1O[C@@H](O[C@@H](CN)c3cc(Cl)c(OCc4ccccc4)c(OCc4ccccc4)c3)C[C@H]21`: the GI50 in the experiment on MDA-MB-435 is 0.162 µM (active); with UACC-257 it was 0.175 µM (active); with U-251 it was 0.158 µM (active); with DU-145, 0.191 µM (active); with SN12C, 0.183 µM (active); with M14, 0.164 µM (active). Besides, the GI50 with SNB-19 was 0.183 µM (active); in the experiment on HCT-116, 0.15 µM (active); in the experiment with CAKI-1 it was 0.165 µM (active); in the experiment with K562, 0.156 µM (active); in the experiment with 786-0 it was 0.181 µM (active); with CCRF-CEM it was 0.167 µM (active). The GI50 with MCF7 was 0.134 µM (active); in the experiment on EKVX, 0.166 µM (active); in the experiment with SR, 0.0627 µM (active); in the experiment with Hs-578T it was 0.187 µM (active); in the experiment with HL-60 it was 0.177 µM (active); in the experiment on OVCAR-5 it was 0.166 µM (active). Besides, in the experiment with HOP-62, the GI50 was 0.179 µM (active).

Turning to `COc1cc(Oc2c(C)c(Cl)c(OC)c(Cl)c2OC)c2c(c1Cl)COC2=O`, the GI50 in the experiment with MDA-MB-435 was 31.3 µM (inactive); with UACC-257 it was 31.9 µM (inactive); in the experiment with U-251 it was 29.8 µM (inactive); with DU-145 it was 52.6 µM (inactive); in the experiment on SN12C it was 17.4 µM (inactive); with M14, 27.7 µM (inactive). Also, the GI50 in the experiment with SNB-19 was 42.2 µM (inactive); in the experiment on HCT-116 it was 6.34 µM (inactive); with CAKI-1, 10.4 µM (inactive); in the experiment with K562, 2.32 µM (inactive); in the experiment on NCI-H23 it was 18.6 µM (inactive); in the experiment with 786-0 it was 17.1 µM (inactive). Also, the GI50 in the experiment with CCRF-CEM is 45.1 µM (inactive); in the experiment on MCF7, 14.4 µM (inactive); in the experiment on EKVX, 22.3 µM (inactive); in the experiment with SR it was 3.85 µM (inactive); with Hs-578T, 54.7 µM (inactive); in the experiment on HL-60, 7.78 µM (inactive). Moreover, in the experiment on OVCAR-5, the GI50 is 47.1 µM (inactive).

On to `CN(/N=C/c1cccs1)c1ccc(Cl)cc1[N+](=O)[O-]`, for which the GI50 in the experiment on MDA-MB-435 was 5.57 µM (inactive); in the experiment on UACC-257 it was 35.6 µM (inactive); with U-251 it was 13.7 µM (inactive); with DU-145, 64.4 µM (inactive); in the experiment with SN12C, 24.5 µM (inactive); with M14, 34.2 µM (inactive). In addition, the GI50 with SNB-19 is 56.2 µM (inactive); with HCT-116 it was 26.2 µM (inactive); with CAKI-1, 63.1 µM (inactive); with K562 it was 5.78 µM (inactive); with NCI-H23, 35.3 µM (inactive); in the experiment on 786-0 it was 59.6 µM (inactive). Besides, the GI50 is 19.1 µM (inactive) in the experiment with CCRF-CEM; 18 µM (inactive) with MCF7; 32.7 µM (inactive) in the experiment with EKVX; 5.71 µM (inactive) in the experiment on SR; 25.4 µM (inactive) in the experiment with Hs-578T; 6.75 µM (inactive) with HL-60. Also, in the experiment on HOP-62, the GI50 is 40.9 µM (inactive).

On to `Cn1c2c(c3ccccc31)CCN1OCC=C[C@@H](C(=O)O)[C@@H]21`, for which the GI50 in the experiment on MDA-MB-435, in the experiment on UACC-257, in the experiment with U-251, in the experiment with DU-145, in the experiment with SN12C and in the experiment with M14 was > 100 µM (inactive) each time. Moreover, the GI50 in the experiment on SNB-19, in the experiment on HCT-116, in the experiment with CAKI-1, with 786-0, in the experiment on MCF7 and in the experiment with EKVX was > 100 µM (inactive) throughout. In addition, the GI50 with SR is > 100 µM (inactive); in the experiment on Hs-578T it was 31 µM (inactive); in the experiment with HL-60, > 100 µM (inactive); in the experiment with OVCAR-5 it was > 100 µM (inactive); in the experiment on HOP-62, > 100 µM (inactive).

With `COc1cc(Oc2nc3cc(F)c(F)cc3nc2-c2ccccc2)cc(OC)c1OC`, the GI50 with MDA-MB-435 is 61.9 µM (inactive); in the experiment on UACC-257 it was > 100 µM (inactive); with U-251, 40.3 µM (inactive); in the experiment with DU-145 it was > 100 µM (inactive); with SN12C it was > 100 µM (inactive); in the experiment with M14, 45.3 µM (inactive). In addition, the GI50 with SNB-19 is 34.2 µM (inactive); in the experiment on HCT-116 it was > 100 µM (inactive); with CAKI-1, 46 µM (inactive); in the experiment on NCI-H23, > 100 µM (inactive); with 786-0, 30.5 µM (inactive); in the experiment with CCRF-CEM, > 100 µM (inactive). The GI50 with MCF7 was 29.5 µM (inactive); with EKVX, 97.7 µM (inactive); in the experiment with SR, 78.9 µM (inactive); in the experiment on Hs-578T it was 38.7 µM (inactive); with HL-60, > 100 µM (inactive); with OVCAR-5, > 100 µM (inactive). Further, the GI50 with HOP-62 is 82 µM (inactive).

For `CC(=O)Nc1ccc(S(=O)(=O)Nc2nc(-c3ccc(Cl)cc3)cc(N3N=C(c4ccc(Br)cc4)CC3c3ccccc3)n2)cc1` (stereo unspecified), the GI50 with MDA-MB-435 was 7.45 µM (inactive); in the experiment on UACC-257 it was 17.5 µM (inactive); in the experiment on U-251 it was 16.8 µM (inactive); in the experiment with DU-145 it was 20.4 µM (inactive); in the experiment with SN12C, 16 µM (inactive); in the experiment with M14, 18.1 µM (inactive). The GI50 is 16 µM (inactive) in the experiment with SNB-19; 14.4 µM (inactive) in the experiment with HCT-116; 7.21 µM (inactive) in the experiment with K562; 16.6 µM (inactive) with NCI-H23; 18.8 µM (inactive) in the experiment with 786-0; 26.1 µM (inactive) in the experiment with CCRF-CEM. Moreover, the GI50 with MCF7 was 2.87 µM (inactive); in the experiment with EKVX it was 13.6 µM (inactive); with SR, 16.2 µM (inactive); with Hs-578T it was 11.1 µM (inactive); in the experiment on HL-60, 14.2 µM (inactive); with OVCAR-5 it was 14.3 µM (inactive). Further, the GI50 with HOP-62 was 16.3 µM (inactive).

`O=C1CCCCCCCCCCC1CN(Cc1ccccc1)Cc1ccccc1` (stereo unspecified): the GI50 in the experiment with MDA-MB-435 is 37.1 µM (inactive); in the experiment on UACC-257, 32.2 µM (inactive); with U-251 it was 18.8 µM (inactive); in the experiment with DU-145, 59 µM (inactive); in the experiment with SN12C it was > 100 µM (inactive); in the experiment with M14, 48 µM (inactive). Also, the GI50 with SNB-19 is 34.9 µM (inactive); in the experiment with HCT-116, 17.3 µM (inactive); with K562, 36.3 µM (inactive); in the experiment with NCI-H23, 32.2 µM (inactive); in the experiment on 786-0 it was 42.6 µM (inactive); in the experiment on CCRF-CEM it was 19.9 µM (inactive). In addition, the GI50 is 23.7 µM (inactive) with MCF7; 36.1 µM (inactive) in the experiment with EKVX; 35.5 µM (inactive) in the experiment on SR; 22.4 µM (inactive) in the experiment on Hs-578T; 23.9 µM (inactive) in the experiment with HL-60; > 100 µM (inactive) in the experiment on OVCAR-5. In addition, in the experiment with HOP-62, the GI50 was > 100 µM (inactive).

The record behind these values is ChEMBL document CHEMBL1201862, “PubChem BioAssay data set” (2004).
